In patent US4599334A, “7-(3-aryl-1-piperazinyl)- and 7-(3-cyclohexyl-1-piperazinyl)-3-quinolonecarboxylic acid antibacterials” (Bayer Aktiengesellschaft, priority 1984, dated 1986):
Converted amounts (≈) assume the structure as drawn.

Tests used:
Format in all cases: cell-based
Conditions in all cases: agar dilution test/isosensitest agar, unit assumed
[1] = tested on: Staphylococcus 1756; experiment: MIC agar dilution test, Staphylococcus 1756
Source text: (§1) It has already been disclosed in J. Med. Chem. 23, 1358 (1980) that 1-ethyl-6-fluoro-1,4-dihydro-4-oxo-7-(1-piperazinyl)-3-quinolinecarboxylicacid (norfloxacin) has antibacterial properties.
(§2) MIC values (agar dilution test/isosensitest agar)

[2] = tested on: Serratia 16040; experiment: MIC agar dilution test, Serratia 16040
Source text: as §1, §2

[3] = tested on: Klebsiella 57 USA; experiment: MIC agar dilution test, Klebsiella 57 USA
Source text: as §1, §2

[4] = tested on: Klebsiella 6179; experiment: MIC agar dilution test, Klebsiella 6179
Source text: as §1, §2

[5] = tested on: Staphylococcus 133; experiment: MIC agar dilution test, Staphylococcus 133
Source text: as §1, §2

[6] = tested on: Providencia 12052; experiment: MIC agar dilution test, Providencia 12052
Source text: as §1, §2

[7] = tested on: E. coli Neumann; experiment: MIC agar dilution test, E. coli Neumann
Source text: as §1, §2

[8] = tested on: Klebsiella 8085; experiment: MIC agar dilution test, Klebsiella 8085
Source text: as §1, §2

[9] = tested on: Staphylococcus FK 422; experiment: MIC agar dilution test, Staphylococcus FK 422
Source text: as §1, §2

MIC values [1] [µg/mL]	MIC values [2] [µg/mL]	MIC values [3] [µg/mL]	MIC values [4] [µg/mL]	MIC values [5] [µg/mL]	MIC values [6] [µg/mL]	MIC values [7] [µg/mL]	MIC values [8] [µg/mL]	MIC values [9] [µg/mL]	SMILES
0.015 (≈ 0.0368 µM)	8 (≈ 19.6 µM)	0.06 (≈ 0.147 µM)	0.015 (≈ 0.0368 µM)	0.015 (≈ 0.0368 µM)	4 (≈ 9.82 µM)	0.015 (≈ 0.0368 µM)	0.015 (≈ 0.0368 µM)	0.015 (≈ 0.0368 µM)	O=C(O)c1cn(C2CC2)c2cc(N3CCNC(c4ccccc4)C3)c(F)cc2c1=O (stereo not drawn) [Example 1, 1-cyclopropyl-6-fluoro-1,4-dihydro-4-oxo-7-(3-phenyl-1-piperazinyl)-3-quinolinecarboxylic acid]
0.03 (≈ 0.0705 µM)	16 (≈ 37.6 µM)	0.25 (≈ 0.588 µM)	0.06 (≈ 0.141 µM)	0.06 (≈ 0.141 µM)	8 (≈ 18.8 µM)	0.015 (≈ 0.0353 µM)	0.015 (≈ 0.0353 µM)	0.03 (≈ 0.0705 µM)	O=C(O)c1cn(C2CC2)c2cc(N3CCNC(c4ccc(F)cc4)C3)c(F)cc2c1=O (stereo not drawn) [Example 2]
0.06 (≈ 0.136 µM)	16 (≈ 36.2 µM)	0.5 (≈ 1.13 µM)	0.125 (≈ 0.283 µM)	0.06 (≈ 0.136 µM)	8 (≈ 18.1 µM)	0.03 (≈ 0.0679 µM)	0.03 (≈ 0.0679 µM)	0.06 (≈ 0.136 µM)	O=C(O)c1cn(C2CC2)c2cc(N3CCNC(c4ccc(Cl)cc4)C3)c(F)cc2c1=O (stereo not drawn) [Example 3]
0.03 (≈ 0.0686 µM)	16 (≈ 36.6 µM)	0.5 (≈ 1.14 µM)	0.125 (≈ 0.286 µM)	0.06 (≈ 0.137 µM)	8 (≈ 18.3 µM)	0.03 (≈ 0.0686 µM)	0.03 (≈ 0.0686 µM)	0.06 (≈ 0.137 µM)	COc1ccc(C2CN(c3cc4c(cc3F)c(=O)c(C(=O)O)cn4C3CC3)CCN2)cc1 (stereo not drawn) [Example 5]
0.5	8	0.125	0.25	0.125	32	0.015	0.03	0.125	Br.O=C(O)c1cn(C2CC2)c2cc(N3CCNC(c4ccc(O)cc4)C3)c(F)cc2c1=O (stereo not drawn) [Example 14, 1-cyclopropyl-6-fluoro-1,4-dihydro-7-[3-(4-hydroxyphenyl)-1-piperazinyl]-4-oxo-3-quinolinecarboxylic acid hydrobromide]

Continued, compound first:

SMILES	MIC values [1] [µg/mL]	MIC values [2] [µg/mL]	MIC values [3] [µg/mL]	MIC values [4] [µg/mL]	MIC values [5] [µg/mL]	MIC values [6] [µg/mL]	MIC values [7] [µg/mL]	MIC values [8] [µg/mL]	MIC values [9] [µg/mL]
O=C(O)c1cn(C2CC2)c2cc(N3CCNC(c4ccc(N5CCCCC5)cc4)C3)c(F)cc2c1=O (stereo not drawn) [Example 8]	0.015 (≈ 0.0306 µM)				0.03 (≈ 0.0612 µM)				0.015 (≈ 0.0306 µM)
O=C(O)c1cn(C2CC2)c2cc(N3CCNC(c4cccc([N+](=O)[O-])c4)C3)c(F)cc2c1=O (stereo not drawn) [Example 11]	0.06 (≈ 0.133 µM)				0.06 (≈ 0.133 µM)				0.125 (≈ 0.276 µM)
O=C(O)c1cn(C2CC2)c2cc(N3CCNC(c4cccs4)C3)c(F)cc2c1=O (stereo not drawn) [Example 12]	0.03 (≈ 0.0726 µM)	16 (≈ 38.7 µM)	0.5 (≈ 1.21 µM)	0.125 (≈ 0.302 µM)	0.03 (≈ 0.0726 µM)	8 (≈ 19.3 µM)	0.015 (≈ 0.0363 µM)	0.015 (≈ 0.0363 µM)	0.06 (≈ 0.145 µM)
O=C(O)c1cn(C2CC2)c2c(F)c(N3CCNC(c4ccccc4)C3)c(F)cc2c1=O (stereo not drawn) [Example 16, 1-cyclopropyl-6,8-difluoro-1,4-dihydro-4-oxo-7-(3-phenyl-1-piperazinyl)-3-quinolinecarboxylic acid]	0.015 (≈ 0.0353 µM)	2 (≈ 4.7 µM)	0.125 (≈ 0.294 µM)	0.015 (≈ 0.0353 µM)	0.015 (≈ 0.0353 µM)	4 (≈ 9.4 µM)	0.015 (≈ 0.0353 µM)	0.015 (≈ 0.0353 µM)	0.015 (≈ 0.0353 µM)
CCn1cc(C(=O)O)c(=O)c2cc(F)c(N3CCNCC3)cc21 [Norfloxacin, 1-ethyl-6-fluoro-1,4-dihydro-4-oxo-7-(1-piperazinyl)-3-quinolinecarboxylicacid, reference compound]	1 (≈ 3.13 µM)	32 (≈ 100 µM)	1 (≈ 3.13 µM)	1 (≈ 3.13 µM)	1 (≈ 3.13 µM)	128 (≈ 401 µM)	0.125 (≈ 0.391 µM)	0.25 (≈ 0.783 µM)	2 (≈ 6.26 µM)
